# In PMC3639963, “A New Class of Small Molecule Inhibitor of BMP Signaling” (PLoS ONE, 2013):
# Values joined by “and” are separate entries in the source; they are usually repeats but may differ in a detail not shown here. Identical values can stand only once.
# Columns and labels:
# Test in all cases: Nanosyn kinase profiling
# Assay type in all cases: biochemical
# JAK1 = target: T1, JAK1 (Homo sapiens, UniProt P23458); settings: read-out: Percentage inhibition; for inhibition at 0.1 µM: 0.1 µM inhibitor; for inhibition at 1 µM: 1 µM inhibitor
# T1 construct: purchased Nanosyn (enzymatic panel); SGC in-house recombinant human kinases (DSF panel); Invitrogen (ALK1-6)
# Method in brief: (§1)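 Percent inhibition of each kinase was measured with the inhibitor at 0.1 µM and at 1 µM, as part of a 200-kinase human selectivity panel.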
# cRAF = target: T2, cRAF (Homo sapiens, UniProt P04049); settings: read-out: Percentage inhibition; for inhibition at 0.1 µM: 0.1 µM inhibitor; for inhibition at 1 µM: 1 µM inhibitor
# T2 construct: purchased Nanosyn (enzymatic panel); SGC in-house recombinant human kinases (DSF panel); Invitrogen (ALK1-6)
# Method in brief: as §1
# BRSK2 = target: T3, BRSK2 (Homo sapiens, UniProt Q8IWQ3); settings: read-out: Percentage inhibition; for inhibition at 0.1 µM: 0.1 µM inhibitor; for inhibition at 1 µM: 1 µM inhibitor
# T3 construct: purchased Nanosyn (enzymatic panel); SGC in-house recombinant human kinases (DSF panel); Invitrogen (ALK1-6)
# T3 sequence (Q8IWQ3 1-736): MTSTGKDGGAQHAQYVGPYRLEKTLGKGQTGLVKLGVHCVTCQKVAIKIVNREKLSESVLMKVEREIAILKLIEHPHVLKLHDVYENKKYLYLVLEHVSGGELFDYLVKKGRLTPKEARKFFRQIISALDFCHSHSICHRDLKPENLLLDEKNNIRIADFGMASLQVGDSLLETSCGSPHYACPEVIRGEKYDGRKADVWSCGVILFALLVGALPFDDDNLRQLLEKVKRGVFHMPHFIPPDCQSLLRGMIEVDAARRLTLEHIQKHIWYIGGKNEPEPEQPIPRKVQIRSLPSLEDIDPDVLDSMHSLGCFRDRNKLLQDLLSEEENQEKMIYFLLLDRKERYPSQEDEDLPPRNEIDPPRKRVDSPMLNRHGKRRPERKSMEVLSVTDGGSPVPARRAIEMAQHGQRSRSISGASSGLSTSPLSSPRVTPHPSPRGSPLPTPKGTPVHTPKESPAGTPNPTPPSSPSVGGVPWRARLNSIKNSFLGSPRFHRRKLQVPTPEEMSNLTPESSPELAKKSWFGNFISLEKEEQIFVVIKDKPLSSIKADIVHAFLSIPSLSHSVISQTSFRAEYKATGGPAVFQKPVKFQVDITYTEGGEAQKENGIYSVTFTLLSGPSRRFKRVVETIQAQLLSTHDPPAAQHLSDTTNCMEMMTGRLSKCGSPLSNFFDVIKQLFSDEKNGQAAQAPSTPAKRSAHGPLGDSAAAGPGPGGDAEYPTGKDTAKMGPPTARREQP
# Method in brief: as §1
# MUSK = target: T4, MUSK (Homo sapiens, UniProt O15146); settings: read-out: Percentage inhibition; for inhibition at 0.1 µM: 0.1 µM inhibitor; for inhibition at 1 µM: 1 µM inhibitor
# T4 construct: purchased Nanosyn (enzymatic panel); SGC in-house recombinant human kinases (DSF panel); Invitrogen (ALK1-6)
# T4 sequence (O15146 24-869): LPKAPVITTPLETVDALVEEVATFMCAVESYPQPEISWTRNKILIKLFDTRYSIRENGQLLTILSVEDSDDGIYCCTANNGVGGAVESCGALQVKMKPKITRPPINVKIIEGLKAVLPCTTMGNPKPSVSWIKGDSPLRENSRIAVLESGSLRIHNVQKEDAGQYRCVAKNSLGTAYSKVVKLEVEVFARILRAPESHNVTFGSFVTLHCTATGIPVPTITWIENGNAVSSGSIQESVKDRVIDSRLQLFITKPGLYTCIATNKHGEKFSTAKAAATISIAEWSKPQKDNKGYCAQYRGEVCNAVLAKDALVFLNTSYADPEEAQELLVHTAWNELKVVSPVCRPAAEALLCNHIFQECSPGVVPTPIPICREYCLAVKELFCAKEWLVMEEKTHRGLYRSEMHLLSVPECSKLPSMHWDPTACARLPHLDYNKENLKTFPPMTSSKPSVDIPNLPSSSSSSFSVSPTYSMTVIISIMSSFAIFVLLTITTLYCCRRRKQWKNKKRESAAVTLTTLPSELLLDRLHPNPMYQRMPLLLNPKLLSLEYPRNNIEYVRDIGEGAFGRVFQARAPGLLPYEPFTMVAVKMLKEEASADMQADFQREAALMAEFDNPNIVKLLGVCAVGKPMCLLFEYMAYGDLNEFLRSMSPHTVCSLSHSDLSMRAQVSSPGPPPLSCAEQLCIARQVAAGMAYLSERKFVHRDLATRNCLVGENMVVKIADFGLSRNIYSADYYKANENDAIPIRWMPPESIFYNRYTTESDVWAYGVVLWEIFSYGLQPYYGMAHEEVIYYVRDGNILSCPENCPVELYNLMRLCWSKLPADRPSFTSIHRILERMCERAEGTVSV
# Method in brief: as §1
# TNK1 = target: T5, TNK1 (Homo sapiens, UniProt Q13470); settings: read-out: Percentage inhibition; for inhibition at 0.1 µM: 0.1 µM inhibitor; for inhibition at 1 µM: 1 µM inhibitor
# T5 construct: purchased Nanosyn (enzymatic panel); SGC in-house recombinant human kinases (DSF panel); Invitrogen (ALK1-6)
# T5 sequence (Q13470 1-666): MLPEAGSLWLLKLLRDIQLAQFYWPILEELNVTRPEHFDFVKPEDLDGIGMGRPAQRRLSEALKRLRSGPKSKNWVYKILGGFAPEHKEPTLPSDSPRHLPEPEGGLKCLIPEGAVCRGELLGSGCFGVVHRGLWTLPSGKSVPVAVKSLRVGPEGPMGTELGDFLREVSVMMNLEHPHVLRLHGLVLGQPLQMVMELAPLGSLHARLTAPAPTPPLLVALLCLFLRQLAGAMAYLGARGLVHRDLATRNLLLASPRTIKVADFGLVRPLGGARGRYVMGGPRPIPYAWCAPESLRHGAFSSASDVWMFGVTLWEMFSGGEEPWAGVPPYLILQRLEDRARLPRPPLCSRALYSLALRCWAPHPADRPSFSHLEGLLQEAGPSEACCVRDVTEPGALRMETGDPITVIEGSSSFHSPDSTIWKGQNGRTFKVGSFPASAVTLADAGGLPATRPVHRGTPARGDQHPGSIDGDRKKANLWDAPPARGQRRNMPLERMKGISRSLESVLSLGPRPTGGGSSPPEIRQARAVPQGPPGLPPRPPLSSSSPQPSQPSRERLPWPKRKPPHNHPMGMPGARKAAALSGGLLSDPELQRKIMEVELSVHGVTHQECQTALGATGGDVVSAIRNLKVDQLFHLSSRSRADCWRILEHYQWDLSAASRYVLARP
# Method in brief: as §1
# ABL1 = target: T6, ABL1 (Homo sapiens, UniProt P00519); settings: for Percentage inhibition: 0.1 µM; for inhibition at 1 µM: 1 µM inhibitor
# T6 construct: purchased Nanosyn (enzymatic panel); SGC in-house recombinant human kinases (DSF panel); Invitrogen (ALK1-6)
# Method in brief: as §1
# [1] = read-out: Percentage inhibition
# T6 sequence (P00519 whole entry): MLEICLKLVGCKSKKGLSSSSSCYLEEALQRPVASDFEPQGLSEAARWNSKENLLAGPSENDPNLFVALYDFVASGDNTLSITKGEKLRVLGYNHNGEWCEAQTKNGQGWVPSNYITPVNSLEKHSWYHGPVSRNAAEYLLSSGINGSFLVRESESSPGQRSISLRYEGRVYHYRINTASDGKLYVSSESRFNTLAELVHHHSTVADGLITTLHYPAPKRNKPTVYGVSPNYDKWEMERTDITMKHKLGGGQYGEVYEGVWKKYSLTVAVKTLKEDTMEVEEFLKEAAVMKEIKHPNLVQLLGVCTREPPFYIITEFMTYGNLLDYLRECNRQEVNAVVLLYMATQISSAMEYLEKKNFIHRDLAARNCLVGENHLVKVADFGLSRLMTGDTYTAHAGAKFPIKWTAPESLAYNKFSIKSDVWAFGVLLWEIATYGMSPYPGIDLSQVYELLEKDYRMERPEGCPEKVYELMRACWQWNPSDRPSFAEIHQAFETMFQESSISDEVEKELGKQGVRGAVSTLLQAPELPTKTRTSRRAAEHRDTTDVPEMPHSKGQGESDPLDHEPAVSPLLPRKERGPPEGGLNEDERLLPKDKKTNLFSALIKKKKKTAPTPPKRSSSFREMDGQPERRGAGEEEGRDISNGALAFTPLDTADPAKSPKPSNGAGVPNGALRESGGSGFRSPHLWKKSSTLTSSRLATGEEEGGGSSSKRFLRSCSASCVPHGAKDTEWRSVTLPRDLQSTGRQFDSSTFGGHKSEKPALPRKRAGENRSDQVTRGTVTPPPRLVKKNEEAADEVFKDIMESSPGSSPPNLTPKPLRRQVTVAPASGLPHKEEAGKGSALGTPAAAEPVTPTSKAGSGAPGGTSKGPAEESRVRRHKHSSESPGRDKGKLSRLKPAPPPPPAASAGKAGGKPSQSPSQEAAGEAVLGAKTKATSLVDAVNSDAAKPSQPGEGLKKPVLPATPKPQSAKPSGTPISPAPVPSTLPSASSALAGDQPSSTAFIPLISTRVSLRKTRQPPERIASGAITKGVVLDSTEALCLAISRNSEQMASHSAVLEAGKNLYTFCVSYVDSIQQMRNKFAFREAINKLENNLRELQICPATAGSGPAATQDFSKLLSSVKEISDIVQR
# T1 sequence (P23458 whole entry): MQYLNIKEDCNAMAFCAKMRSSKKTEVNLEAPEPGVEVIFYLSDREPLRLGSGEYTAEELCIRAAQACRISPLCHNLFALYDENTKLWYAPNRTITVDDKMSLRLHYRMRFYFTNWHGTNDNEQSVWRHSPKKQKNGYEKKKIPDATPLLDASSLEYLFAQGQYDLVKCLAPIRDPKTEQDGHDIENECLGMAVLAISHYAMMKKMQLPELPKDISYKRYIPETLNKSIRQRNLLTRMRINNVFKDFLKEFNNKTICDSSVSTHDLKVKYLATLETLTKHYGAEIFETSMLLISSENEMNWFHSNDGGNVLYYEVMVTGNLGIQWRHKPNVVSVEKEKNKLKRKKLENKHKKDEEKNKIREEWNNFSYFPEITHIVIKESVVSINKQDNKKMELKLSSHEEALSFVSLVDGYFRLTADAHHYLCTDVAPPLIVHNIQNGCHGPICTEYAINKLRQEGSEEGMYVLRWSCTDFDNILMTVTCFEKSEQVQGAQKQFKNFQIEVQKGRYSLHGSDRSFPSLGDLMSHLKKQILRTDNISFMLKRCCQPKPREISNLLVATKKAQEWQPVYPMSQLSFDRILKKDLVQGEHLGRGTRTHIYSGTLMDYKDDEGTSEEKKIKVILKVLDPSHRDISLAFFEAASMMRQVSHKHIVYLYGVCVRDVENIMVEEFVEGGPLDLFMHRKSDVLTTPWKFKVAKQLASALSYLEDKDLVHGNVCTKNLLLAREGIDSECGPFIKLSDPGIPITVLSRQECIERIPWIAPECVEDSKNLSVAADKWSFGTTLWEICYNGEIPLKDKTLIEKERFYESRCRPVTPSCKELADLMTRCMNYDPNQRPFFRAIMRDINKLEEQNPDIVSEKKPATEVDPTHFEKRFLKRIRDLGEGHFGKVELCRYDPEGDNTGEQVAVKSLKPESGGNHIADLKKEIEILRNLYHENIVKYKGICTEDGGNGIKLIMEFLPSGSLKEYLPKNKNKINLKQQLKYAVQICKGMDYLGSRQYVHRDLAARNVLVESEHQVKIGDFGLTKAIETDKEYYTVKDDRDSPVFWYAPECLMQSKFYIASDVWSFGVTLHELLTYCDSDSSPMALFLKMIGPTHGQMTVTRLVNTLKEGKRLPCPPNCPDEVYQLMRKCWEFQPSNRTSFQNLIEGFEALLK
# T2 sequence (P04049 whole entry): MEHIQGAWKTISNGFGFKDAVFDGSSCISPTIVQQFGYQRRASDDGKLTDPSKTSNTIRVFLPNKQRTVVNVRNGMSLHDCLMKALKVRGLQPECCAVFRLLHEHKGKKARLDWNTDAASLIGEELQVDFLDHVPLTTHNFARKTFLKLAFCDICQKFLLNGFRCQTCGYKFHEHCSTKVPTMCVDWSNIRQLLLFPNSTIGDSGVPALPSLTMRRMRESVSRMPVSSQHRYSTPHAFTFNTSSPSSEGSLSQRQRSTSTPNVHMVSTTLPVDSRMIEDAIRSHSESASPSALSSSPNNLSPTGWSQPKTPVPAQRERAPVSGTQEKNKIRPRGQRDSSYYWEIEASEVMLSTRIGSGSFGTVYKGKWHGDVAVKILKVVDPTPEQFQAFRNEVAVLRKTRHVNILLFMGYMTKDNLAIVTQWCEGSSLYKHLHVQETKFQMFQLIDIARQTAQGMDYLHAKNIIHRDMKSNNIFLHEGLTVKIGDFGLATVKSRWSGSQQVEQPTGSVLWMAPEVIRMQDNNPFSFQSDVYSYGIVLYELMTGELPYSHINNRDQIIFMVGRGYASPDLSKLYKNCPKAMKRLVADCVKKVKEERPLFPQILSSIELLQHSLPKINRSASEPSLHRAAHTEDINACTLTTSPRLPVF
Structure (SMILES),inhibition at 0.1 µM (JAK1) [%],inhibition at 1 µM (JAK1) [%],inhibition at 0.1 µM (cRAF) [%],inhibition at 1 µM (cRAF) [%],inhibition at 0.1 µM (BRSK2) [%],inhibition at 1 µM (BRSK2) [%],inhibition at 0.1 µM (MUSK) [%],inhibition at 1 µM (MUSK) [%],inhibition at 0.1 µM (TNK1) [%],inhibition at 1 µM (TNK1) [%],Percentage inhibition (ABL1; 0.1 µM inhibitor),inhibition at 1 µM (ABL1; [1]) [%],"inhibition at 0.1 µM (ABL1; 0.1 µM inhibitor, read-out: Percentage inhibition) [%]"
"COc1cc(-c2cc(-c3cccc(O)c3)cnc2N)cc(OC)c1OC [K02288, 3-[6-amino-5-(3,4,5-trimethoxy-phenyl)-pyridin-3-yl]-phenol]",0,0.4,-5,-8,0.9,2.7,1.2,-1,0.4,10,79% and > 50%,89,
c1ccc2c(-c3cnn4cc(-c5ccc(N6CCNCC6)cc5)cnc34)ccnc2c1 [LDN-193189],2.7,4.2,0.6,0.1,4.4,22,5.8,26,18,63,> 50%,84,62
